According to patent US20180015051A1, “MODULATORS OF ALPHA-DICARBONYL DETOXIFICATION AND THEIR USE FOR THE TREATMENT OF DIABETIC PATHOLOGIES” (Buck Institute for Research on Aging, priority 2016, published 2018):

Assays:
[1] = target: T1, TRPA-1^E1018A (Ca^2+ impermeable) mutant channel (Caenorhabditis elegans, UniProt Q18297, E1018A); experiment: Ca2+ flux-based channel study in C. elegans (intestinal GCaMP1.3), TRPA-1^E1018A mutant channel; type: in vivo; settings: Ca^+2-impermeable TRPA-1^E1018A channel; for Ca2+ flux (percentage change in peak GCaMP1.3 fluorescence intensity): PA or LA (20 pM)
T1 construct: expressed in transfected cells; host or cells: transgenic C. elegans (strain TQ2772), ges-1 promoter (intestine), trpa-1(ok999) background, with GCaMP1.3
T1 sequence (Q18297 whole entry E1018A): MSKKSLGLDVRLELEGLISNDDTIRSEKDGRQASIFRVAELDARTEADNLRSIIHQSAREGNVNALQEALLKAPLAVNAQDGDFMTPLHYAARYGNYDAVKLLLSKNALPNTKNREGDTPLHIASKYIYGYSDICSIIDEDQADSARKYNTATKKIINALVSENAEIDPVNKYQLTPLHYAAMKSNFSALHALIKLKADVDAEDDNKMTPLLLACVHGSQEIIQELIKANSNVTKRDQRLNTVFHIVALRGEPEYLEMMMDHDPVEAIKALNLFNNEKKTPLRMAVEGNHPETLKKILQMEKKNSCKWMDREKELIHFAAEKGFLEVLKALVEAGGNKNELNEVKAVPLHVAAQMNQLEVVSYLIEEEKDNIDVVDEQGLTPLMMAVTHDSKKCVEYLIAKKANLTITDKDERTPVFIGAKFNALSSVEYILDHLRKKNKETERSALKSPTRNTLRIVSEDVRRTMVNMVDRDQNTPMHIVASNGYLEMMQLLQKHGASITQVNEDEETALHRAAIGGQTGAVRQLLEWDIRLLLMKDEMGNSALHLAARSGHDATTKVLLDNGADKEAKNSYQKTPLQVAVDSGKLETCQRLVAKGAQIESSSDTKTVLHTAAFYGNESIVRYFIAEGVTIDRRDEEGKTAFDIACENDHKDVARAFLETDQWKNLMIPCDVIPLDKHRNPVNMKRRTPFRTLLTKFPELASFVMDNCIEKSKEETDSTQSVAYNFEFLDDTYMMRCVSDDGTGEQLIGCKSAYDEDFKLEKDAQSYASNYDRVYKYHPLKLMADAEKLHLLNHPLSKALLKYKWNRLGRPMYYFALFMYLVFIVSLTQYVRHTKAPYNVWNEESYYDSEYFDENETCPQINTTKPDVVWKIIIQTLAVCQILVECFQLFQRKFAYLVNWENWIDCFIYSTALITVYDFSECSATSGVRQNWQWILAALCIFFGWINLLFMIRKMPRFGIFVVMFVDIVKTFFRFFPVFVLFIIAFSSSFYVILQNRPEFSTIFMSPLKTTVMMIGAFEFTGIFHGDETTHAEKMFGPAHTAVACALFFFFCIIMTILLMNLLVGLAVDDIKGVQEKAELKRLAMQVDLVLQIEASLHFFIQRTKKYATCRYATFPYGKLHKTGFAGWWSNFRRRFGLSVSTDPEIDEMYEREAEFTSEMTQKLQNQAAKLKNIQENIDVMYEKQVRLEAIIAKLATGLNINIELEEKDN
Experimental: (§1) Ca^2+ flux was measured using an upright Olympus compound microscope (BX51) under a 40× objective. Real time sequential G-CaMP1.3 fluorescent images were captured using Hamamatsu Ocra-ER digital CCD camera at a frame rate of 10 frames per second and for a span of 300 frames. Acquired images were analyzed for further intensity measurements using HC Image software v. 1.1.3.0 (Hamamatsu Corp., NJ). Percentage change in fluorescent peak intensity was estimated using the intensity values generated real time by the program.

SKN-1/Nrf2 = experiment: SKN-1 activation assay (GFP reporters for SKN-1, gst-4, gcs-1; qPCR); type: in vivo, Caenorhabditis elegans; settings: for Expression of gst-4 (GFP foci) under trpa-1 knockdown: glod-4;gst-4p::gfp animals, PA or LA (20 pM); for SKN-1 activation (GFP foci in gst-4p::gfp): gst-4p::gfp animals on EV or glod-4 RNAi, PA, LA, or UMP (20 pM)
Experimental: Adult animals were examined for SKN-1/Nrf2 activation using GFP reporters for both SKN-1 and SKN-1 target genes: gst-4 and gcs-1. For exogenous MGO and drug assays, age-synchronized GFP reporter strains were subject to control and treatment conditions for a period of 4-6 hours before microscopy. For RNAi-induced activation studies, GFP reporter strains were fed on HT1115 bacteria expressing empty vector pL4440 or RNAi gene from L1 stage. Synchronized day 1 adult animals were then subjected to microscopic examination. Activation of SKN-1 using SKN-1 fusion reporter was determined as described earlier (An et al. (2003) Genes & Dev. 17: 1882-1893; Onken and Driscoll (2010) PloS One, 5: e8758). Scoring for downstream SKN-1 targets carrying GFP reporter for gcs-1 promoter was performed based on a previous study (Wang et al. (2010) PLoS Genetics, doi. org/10.1371/journal.pgen.1001048) and categorized as follows: ‘high’ for strong GFP signal throughout the intestine, ‘medium’ for GFP signal in the anterior or posterior section of the intestine and ‘low’ for weak or no signal. For animals with gst-4 promoters carrying GFP reporters number of GST-4 positive foci was counted under different conditions as described previously (Fensgardet al. (2010) Aging, 2: 133-159). Quantification of acquired images was done using the Image J™ software (//imagej.nih.gov/ij/).
Total RNA was extracted from nearly 100 age-synchronized adult animals picked and collected in 20 pl of M9 buffer using TRIzol reagent (Life Technologies, CA). Subsequently, 1 pg total RNA was used as template for cDNA synthesis. cDNA was synthesized using the ISCRIPT™ cDNA synthesis kit (Bio-Rad, CA) following manufacturer's protocol. qRT-PCR was carried out using the SensiFAST SYBR No-ROX kit (Bioline, MA) in a LightCycler 480 Real-Time PCR system (Roche Diagnostics Corp., IN). Quantification was performed using the comparative AACt method and normalization for internal reference was done using actin gene act-1.

C. elegans = experiment: Lifespan assay (survival curves); type: in vivo, Caenorhabditis elegans; settings: for Lifespan / early mortality (survival curves): glod-4 mutant animals, PA, LA, or UMP (20 pM) vs EtOH control
Experimental: Life span assays were performed in Thermo Scientific Precision incubators at 20° C. After alkaline hypochlorite treatment, synchronized L1 animals were either placed onto NGM plates seeded with 5× concentrated E. coli OP50-1 (cultured on Lysogeny Broth/LB overnight) or on RNAi plates supplemented with 20×HT1115 RNAi bacteria. Post-L4 stage of development, all lifespan assays were performed using FUdR (5-fluoro-2 deoxyuridine) plates to inhibit development and growth of progeny. Every two days, animals were transferred on to new 60 mm NGM or RNAi plates freshly seeded with OP50-1 or HT1115 bacteria (with or without drug), respectively. 90-120 animals were considered for each lifespan experiment. Animal viability was assessed visually or with gentle prodding on the head. Animals were censored in the event of internal hatching of the larvae, body rupture, or crawling of larvae from the plates.

TRPA-1 = target: T2, TRPA-1 (Caenorhabditis elegans, UniProt Q18297); experiment: Ca2+ flux-based channel study in C. elegans (intestinal GCaMP1.3), wild-type TRPA-1; type: in vivo; settings: for Ca2+ flux (percentage change in peak GCaMP1.3 fluorescence intensity): wild-type TRPA-1, PA or LA (20 pM)
T2 construct: TQ3056: XuIs180[plfe2b::GCaMP1.3+plfe-2b::dsred];N2; endogenous in cells; host or cells: whole C. elegans animals, N2 background with intestinal GCaMP1.3 (strain TQ3056)
T2 sequence (Q18297 1-1211): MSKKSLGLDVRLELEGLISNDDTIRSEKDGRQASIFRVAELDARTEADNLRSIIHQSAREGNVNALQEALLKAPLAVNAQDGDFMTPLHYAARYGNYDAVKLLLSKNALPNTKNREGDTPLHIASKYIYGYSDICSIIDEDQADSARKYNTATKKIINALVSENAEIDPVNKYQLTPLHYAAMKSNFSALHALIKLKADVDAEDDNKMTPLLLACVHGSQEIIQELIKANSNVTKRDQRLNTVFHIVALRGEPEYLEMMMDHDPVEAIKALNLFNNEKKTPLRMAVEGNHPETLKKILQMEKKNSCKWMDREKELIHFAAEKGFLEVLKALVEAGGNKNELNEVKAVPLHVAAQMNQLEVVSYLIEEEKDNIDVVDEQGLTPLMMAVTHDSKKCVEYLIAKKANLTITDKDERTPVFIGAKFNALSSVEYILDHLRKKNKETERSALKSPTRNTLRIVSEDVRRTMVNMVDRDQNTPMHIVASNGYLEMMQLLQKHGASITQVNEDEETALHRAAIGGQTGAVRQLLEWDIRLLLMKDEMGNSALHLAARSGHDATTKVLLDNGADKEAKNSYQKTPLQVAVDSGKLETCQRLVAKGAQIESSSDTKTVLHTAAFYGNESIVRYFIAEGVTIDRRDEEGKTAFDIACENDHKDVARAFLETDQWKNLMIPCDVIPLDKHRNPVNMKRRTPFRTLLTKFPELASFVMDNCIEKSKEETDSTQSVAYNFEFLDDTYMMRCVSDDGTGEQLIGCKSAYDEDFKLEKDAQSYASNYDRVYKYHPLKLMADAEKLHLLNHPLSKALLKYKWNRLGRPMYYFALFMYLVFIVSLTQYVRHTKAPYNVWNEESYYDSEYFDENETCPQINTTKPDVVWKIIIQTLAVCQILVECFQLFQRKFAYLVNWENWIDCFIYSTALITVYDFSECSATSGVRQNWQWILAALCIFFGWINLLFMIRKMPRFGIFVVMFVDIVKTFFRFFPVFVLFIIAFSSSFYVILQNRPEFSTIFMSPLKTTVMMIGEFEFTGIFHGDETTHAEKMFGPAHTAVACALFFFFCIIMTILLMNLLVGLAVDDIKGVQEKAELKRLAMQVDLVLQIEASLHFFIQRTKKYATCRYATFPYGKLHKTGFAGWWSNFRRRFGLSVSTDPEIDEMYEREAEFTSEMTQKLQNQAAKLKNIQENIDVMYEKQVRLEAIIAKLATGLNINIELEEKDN
Experimental: as §1

For `C[C@]1(C(=O)O)CCC[C@]2(C)c3cc(O)ccc3CC[C@@H]12` [PA, podocarpic acid], which “Ca2+ flux (percentage change in peak GCaMP1.3 fluorescence intensity)” value [1] is on record?
Its value is “significantly reduced”.

What about the “Expression of gst-4 (GFP foci) under trpa-1 knockdown” value (SKN-1/Nrf2; trpa-1 RNAi) of the same compound?
The value was “significantly reduced to wild-type levels”.

What about the “SKN-1 activation (GFP foci in gst-4p::gfp)” value (SKN-1/Nrf2) of the same compound?
Its value is “activates SKN-1”.

And the “Lifespan / early mortality (survival curves)” value (C. elegans)?
Its value is “able to prevent”.

What about the “Ca2+ flux (percentage change in peak GCaMP1.3 fluorescence intensity)” value (TRPA-1) of the same compound?
Its value is “robust Ca+^2 flux”.

How did the “Ca2+ flux (percentage change in peak GCaMP1.3 fluorescence intensity)” value [1] turn out when `O=C(O)CCCCC1CCSS1` (stereo not shown) [LA, a-lipoic acid] was run?
The value was “significantly reduced”.

What about the “Expression of gst-4 (GFP foci) under trpa-1 knockdown” value (SKN-1/Nrf2; trpa-1 RNAi) of the same compound?
The value was “significantly reduced to wild-type levels”.

And the “SKN-1 activation (GFP foci in gst-4p::gfp)” value (SKN-1/Nrf2)?
The value was “SKN-1 activation was observed”.

What about the “Lifespan / early mortality (survival curves)” value (C. elegans) of the same compound?
Its value is “performed similar to PA”.

And the “Ca2+ flux (percentage change in peak GCaMP1.3 fluorescence intensity)” value (TRPA-1)?
Its value is “robust Ca+^2 flux”.

For `CC(=O)C=O` [MGO, methylglyoxal], which “Ca2+ response (G-CaMP1.3 sensor)” value ([1]; 7 mM MGO) is on record?
The value was “basal responses”.

What about the “SKN-1 nuclear localization (SKN-1::GFP)” value (SKN-1/Nrf2; 7 mM MGO vs water) of the same compound?
The value was “undergo nuclear localization”.

What about the “Expression of SKN-1 reporters gst-4 and gcs-1 on trpa-1 knockdown” value (SKN-1/Nrf2; MGO-treated wild-type animals, 7 mM MGO, trpa-1 RNAi) of the same compound?
Its value is “significantly reduced”.

And the “SKN-1/Nrf2 activation (gst-4 and gcs-1, GFP reporter and RT-PCR)” value (SKN-1/Nrf2; exogenous MGO treatment, 7 mM vs water)?
The value was “significant SKN-1/Nrf2 activation”.

What about the “Lifespan (survival curves)” value (C. elegans; N2 animals, 7 mM MGO vs water) of the same compound?
Its value is “early mortality”.

What about the “Ca2+ response (G-CaMP1.3 sensor)” value (TRPA-1; functional (wild-type) TRPA-1 channel, 7 mM MGO vs water) of the same compound?
The value was “robust Ca^2+ response”.
